Series [1] can be described thus: Head-to-tail native chemical ligation in two-module microfluidic flow: SEAon peptide amide rearranged to SEAE thioester (pH 1, TCEP, 60 min, 90 or 65 C), then MPAA (0.4 M)/Na2HPO4 (0.2 M) pH 7.3 cyclisation onto N-terminal Cys, 4 min. Conditions: 30-membered ring, water (phosphate buffer, MPAA, TCEP; decane segmented carrier), 0.6 mM, 37.0 °C, 0.067 h, 2 steps, scale: %.

Series [2] is described as follows: Head-to-tail native chemical ligation in two-module microfluidic flow: SEAon peptide amide rearranged to SEAE thioester (pH 1, TCEP, 60 min, 90 or 65 C), then MPAA (0.4 M)/Na2HPO4 (0.2 M) pH 7.3 cyclisation onto N-terminal Cys. The settings on record: 30-membered ring, water (phosphate buffer, MPAA, TCEP; decane segmented carrier; 6 M Gn.HCl for 4l-p), 0.6 mM, 37.0 °C, 0.067 h, 2 steps.

Where [3] appears, read: from CC[C@H](C)[C@H](NC(=O)[C@@H](N)CS)C(=O)N[C@@H](CC(C)C)C(=O)N[C@@H](CC(N)=O)C(=O)NCC(=O)N1CCC[C@H]1C(=O)N[C@H](C(=O)N[C@@H](Cc1c[nH]cn1)C(=O)NCC(=O)N[C@@H](CC(C)C)C(=O)SCCNCCS)C(C)C.
The mark [4] stands for this setting: from CC[C@H](C)[C@H](NC(=O)[C@@H](N)CS)C(=O)N[C@@H](CC(C)C)C(=O)N[C@@H](CCCCN)C(=O)N[C@@H](CCC(=O)O)C(=O)NCC(=O)N[C@H](C(=O)N[C@@H](Cc1c[nH]cn1)C(=O)NCC(=O)N[C@H](C(=O)SCCNCCS)[C@@H](C)O)C(C)C.

Molecules are shown by their SMILES.

Data on two molecules can be found in PMC6054628.

On to `CC[C@H](C)[C@@H]1NC(=O)[C@H](CS)NC(=O)[C@H](CC(C)C)NC(=O)CNC(=O)[C@H](Cc2c[nH]cn2)NC(=O)[C@H](C(C)C)NC(=O)[C@@H]2CCCN2C(=O)CNC(=O)[C@H](CC(N)=O)NC(=O)[C@H](CC(C)C)NC1=O` [H-CILNGPVHGL-SEAon (via SEAE thioester)], for which the ring closure, conversion by HPLC in series [1] (setting [3]) turned out to be 85. Moreover, the ring closure, yield over several steps in series [2] (setting [3]) worked out at 80%.
`CC[C@H](C)[C@@H]1NC(=O)[C@H](CS)NC(=O)[C@H]([C@@H](C)O)NC(=O)CNC(=O)[C@H](Cc2c[nH]cn2)NC(=O)[C@H](C(C)C)NC(=O)CNC(=O)[C@H](CCC(=O)O)NC(=O)[C@H](CCCCN)NC(=O)[C@H](CC(C)C)NC1=O` [H-CILKEGVHGT-SEAon (via SEAE thioester)] yielded a ring closure, conversion by HPLC in series [1] (setting [4]) of 73. Besides, the ring closure, yield over several steps in series [2] (setting [4]) turned out to be 49%.
